In US20110046141A1, “USE OF PDE5 INHIBITORS FOR TREATING CIRCADIAN RHYTHM DISORDERS” (CONSEJO NACIONAL DE INVESTIGACIONES CIENTIFICAS Y TECNICAS …, priority 2007, published 2011):

Assays:
[1] = test system: Syrian hamsters (Mesocricetus auratus); assay: Reentrainment of wheel-running activity rhythm after a 6-hr phase delay of the LD cycle; assay type: in vivo; details: 3.5 mg/kg i.p. at ZT 14; 6-hr delay; FIG. 3A
Experimental: (A) Effect on reentrainment of wheel-running activity rhythm following a 6-hr phase delay of the LD cycle. Double-plotted actograms of hamster wheel-running activity showing reentrainment to a 6-hr delay of the LD cycle after the injection of vehicle (top) and sildenafil (3.5 mg/kg, i.p., middle). Injections of either saline or sildenafil were given at ZT 14 on the day of the cycle change (white star). Bottom: mean±S.E.M. (n=4 animals per group) of days needed for reentrainment. (B) Effect of sildenafil on light-induced phase delays following light pulses at CT 14. Representative actograms showing vehicle (top) or sildenafil (middle) injections. Bottom graph: Mean±S.E.M. (n=4 animals per group). Animals. Male adult (3-4 month-old) Syrian hamsters (Mesocricetus auratus) were raised and maintained in a 14:10 h light-dark cycle (L:D, lights on at 0600 h), with food and water ad libitum and room temperature set at 20±2° C. All animal procedures were performed in strict accordance with NIH rules for animal care and maintenance. Activity rhythm recording. […] Running-wheel activity was continuously recorded for each animal using a digital system that registers wheel revolutions and stored at 5-min intervals for further analysis. […] Daily onsets of activity were determined. […]

[2] = test system: Syrian hamsters (Mesocricetus auratus); assay: Observation of sildenafil-induced penile erections in treated hamsters; assay type: in vivo; details: intermediate dose 3.5 mg/kg i.p.
[3] = test system: cGMP levels in the hamster SCN; assay: Determination of cGMP levels in the SCN by direct enzyme immunoassay; assay type: in vivo; details: n=4
Experimental: Determination of cGMP levels. Cyclic GMP content was determined using a direct enzyme immunoassay kit (Correlate-EIA #900-014, Assay Designs, Ann Arbor, Mich.). Hamsters received an injection of sildenafil (3.5 mg/kg, i.p.) or vehicle (sterile saline solution) at CT 18 and were sacrificed by decapitation 45-90 min later. The SCN were quickly punched out and immediately frozen in liquid nitrogen in order to avoid endogenous cGMP degradation. Tissue was grounded to a fine powder under liquid nitrogen and then homogenized in 0.1 M HCI. The overnight acetylated format of the kit was used. […] In order to precisely compare the effect of sildenafil on cGMP levels, the use of other phosphodiesterase inhibitors, e.g., IBMX, was avoided.

[4] = test system: Syrian hamsters (Mesocricetus auratus); assay: Reentrainment of wheel-running activity rhythm after an abrupt 6-h advance of the LD cycle; assay type: in vivo; details: for time to resynchronize to the new LD cycle: saline 12±2 days; for decrease in reentrainment time: FIG. 1D
Experimental: Animals. Male adult (3-4 month-old) Syrian hamsters (Mesocricetus auratus) were raised and maintained in a 14:10 h light-dark cycle (L:D, lights on at 0600 h), with food and water ad libitum and room temperature set at 20±2° C. All animal procedures were performed in strict accordance with NIH rules for animal care and maintenance. Activity rhythm recording. For the resynchronization experiment, animals were transferred to individual cages equipped with a running wheel (17 cm. diameter) and with light intensity averaging 200 lux at cage level. Running-wheel activity was continuously recorded for each animal using a digital system that registers wheel revolutions and stored at 5-min intervals for further analysis. Animals were initially maintained under a 14:10-h is light-dark cycle (LD, lights on at 1900 h) for at least 10 days. Then, hamsters were subjected to an abrupt 6-h advance in the phase of the LD cycle. On the day of the phase shift, intraperitoneal (i.p) injection of sildenafil or vehicle was given at zeitgeber time (ZT) 18, defining ZT 12 as the time of lights off. Time for reentrainment to the new LD cycle was defined as the time it took for each animal to adjust its activity onset with the new cycle (onset at the new time of lights off±15 minutes). Daily onsets of activity were determined. Briefly, activity onset was defined as the 10 min-bin that contained at least 80 wheel revolutions, followed by another bin of at least another 80 wheel revolutions within 40 min. The effect of 1, 3.5 or 10 mg/kg sildenafil—extracted from commercial preparations according to Francis et al. (Int. J. Impotence Res. 2003 15: 369-372) was tested at ZT 14 or 18 in comparison to vehicle administration (sterile saline).

[5] = test system: Syrian hamsters (Mesocricetus auratus); assay: Light-induced phase advances of activity rhythm, 15-min 50 lux light pulse at CT 18 in constant dark; assay type: in vivo; details: for light-induced phase advance: vehicle 76±23 min
Experimental: Animals. Male adult (3-4 month-old) Syrian hamsters (Mesocricetus auratus) were raised and maintained in a 14:10 h light-dark cycle (L:D, lights on at 0600 h), with food and water ad libitum and room temperature set at 20±2° C. All animal procedures were performed in strict accordance with NIH rules for animal care and maintenance.
For light pulse experiments, hamsters were placed in constant dark (DD) conditions, and exposed to a 15-min white light pulse of 50 lux at either circadian time (CT) 14 or 18 (with CT 12 defined as the onset of wheel running activity in DD). Phase shifts were calculated by fitting a line (by three observers masked to the experimental procedure) through activity onsets 5 days prior and between 5 and 15 days after light exposure and then comparing these two lines on the day of the light pulse. […]

rats = details: i.p.; cited from earlier work
[6] = test system: Syrian hamsters (Mesocricetus auratus); assay: Light-induced phase delays of activity rhythm, light pulse at CT 14; assay type: in vivo; details: FIG. 3B
Experimental: (A) Effect on reentrainment of wheel-running activity rhythm following a 6-hr phase delay of the LD cycle. Double-plotted actograms of hamster wheel-running activity showing reentrainment to a 6-hr delay of the LD cycle after the injection of vehicle (top) and sildenafil (3.5 mg/kg, i.p., middle). Injections of either saline or sildenafil were given at ZT 14 on the day of the cycle change (white star). Bottom: mean±S.E.M. (n=4 animals per group) of days needed for reentrainment. (B) Effect of sildenafil on light-induced phase delays following light pulses at CT 14. Representative actograms showing vehicle (top) or sildenafil (middle) injections. Bottom graph: Mean±S.E.M. (n=4 animals per group). Animals. Male adult (3-4 month-old) Syrian hamsters (Mesocricetus auratus) were raised and maintained in a 14:10 h light-dark cycle (L:D, lights on at 0600 h), with food and water ad libitum and room temperature set at 20±2° C. All animal procedures were performed in strict accordance with NIH rules for animal care and maintenance. […] Phase shifts were calculated by fitting a line (by three observers masked to the experimental procedure) through activity onsets 5 days prior and between 5 and 15 days after light exposure and then comparing these two lines on the day of the light pulse. […]

Compound: CCCc1nn(C)c2c(=O)[nH]c(-c3cc(S(=O)(=O)N4CCN(C)CC4)ccc3OCC)nc12 [sildenafil, 5-[2-ethoxy-5-(4-methyl-1-piperazinylsulphonyl)phenyl]-1-methyl-3-n-propyl-1,6-dihydro-7H-pyrazolo[4,3-d]pyrimidin-7-one]
- effect on reentrainment rates after a delay in the LD cycle [1]: did not affect
- sildenafil-induced penile erections [2]: did not manifest the effects of sildenafil-induced penile erections
- SCN cGMP levels ([3]; 3.5 mg/kg i.p. at CT 18, 45 minutes after injection, saline 0.37±0.20, control 0.29±0.15, mean±SD): 0.63±0.08 pmol cGMP/mg protein
- SCN cGMP levels ([3]; 90 min after injection, saline 0.26±0.16, no increase vs controls): 0.37±0.20 pmol cGMP/mg protein
- time to resynchronize to the new LD cycle ([4]; 1 mg/kg i.p. at ZT 18, p>0.05 vs. control): 9 ± 3 days
- decrease in reentrainment time ([4]; 1 mg/kg): 25%
- time to resynchronize to the new LD cycle ([4]; 3.5 mg/kg i.p. at ZT 18 on day of 6-h advance, mean±SD, six animals per group, p<0.05): 8 ± 1 days
- decrease in reentrainment time ([4]; 3.5 mg/kg): 33%
- time to resynchronize to the new LD cycle ([4]; 10 mg/kg i.p. at ZT 18, p<0.001 vs. control): 6 ± 2 days
- decrease in reentrainment time ([4]; 10 mg/kg): 50%
- light-induced phase advance ([5]; 3.5 mg/kg i.p. 45 min prior to light pulse at CT 18, mean±SD, p<0.05): 150.4 ± 64.8 min
- post-treatment circadian period ([5]; after light-induced phase advance): did not change
- light-induced phase advance ([5]; injection 90 min before light pulse at CT 18, not significantly different from controls): 123 ± 27 min
- effect on activity rhythms, drug alone ([5]; without light pulse): did not modify activity rhythms
- optimal erectogenic dose (rats): 5 mg/kg/day
- effect on light-induced phase delays [6]: did not affect
